Columns and labels:
Assay in all cases: Test C greenhouse herbicide test, pre- and postemergence
Type in all cases: in vivo
[1] = tested on: johnsongrass (Sorghum halepense); details: for Plant response rating, Johnsongrass: Postemergence
Method in brief: (§1)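 Seeds sown in loam–sand blend treated preemergence; plants in peat-based medium sprayed postemergence at 2–18 cm (1- to 4-leaf stage); chemicals in non-phytotoxic solvent with surfactant. Greenhouse 13–15 d, then visual rating versus controls on 0–100 scale (0 no effect, 100 complete control).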

[2] = tested on: nutsedge, yellow (yellow nutsedge, Cyperus esculentus); details: for Plant response rating, Nutsedge, Yellow: Postemergence
Method in brief: as §1

corn (Zea mays) = tested on: corn (Zea mays)
Method in brief: as §1

[3] = tested on: oilseed rape (Brassica napus); details: for Plant response rating, Oilseed Rape: Postemergence
Method in brief: as §1

[4] = tested on: crabgrass, large (large crabgrass, Digitaria sanguinalis); details: for Plant response rating, Crabgrass, Large: Postemergence
Method in brief: as §1

[5] = tested on: ryegrass, Italian (Italian ryegrass, Lolium multiflorum); details: for Plant response rating, Ryegrass, Italian: Postemergence
Method in brief: as §1

[6] = tested on: lambsquarters (Chenopodium album); details: for Plant response rating, Lambsquarters: Postemergence
Method in brief: as §1

[7] = tested on: morningglory (Ipomoea coccinea); details: for Plant response rating, Morningglory: Postemergence
Method in brief: as §1

[8] = tested on: blackgrass (Alopecurus myosuroides)
Method in brief: as §1

[9] = tested on: galium (catchweed bedstraw, Galium aparine); details: for Plant response rating, Galium: Postemergence
Method in brief: as §1

[10] = tested on: barnyardgrass (Echinochloa crus-galli)
Method in brief: as §1

[11] = tested on: ragweed (common ragweed, Ambrosia elatior); details: for Plant response rating, Ragweed: Postemergence
Method in brief: as §1

[12] = tested on: velvetleaf (Abutilon theophrasti); details: for Plant response rating, Velvetleaf: Postemergence
Method in brief: as §1

[13] = tested on: waterhemp (common waterhemp, Amaranthus rudis); details: for Plant response rating, Waterhemp: Postemergence
Method in brief: as §1

[14] = tested on: pigweed (Amaranthus retroflexus); details: for Plant response rating, Pigweed: Postemergence
Method in brief: as §1

[15] = tested on: foxtail, giant (giant foxtail, Setaria faberii); details: for Plant response rating, Foxtail, Giant: Postemergence
Method in brief: as §1

[16] = 125 g ai/ha, scale 0 to 100, 0 is no effect, 100 is complete control
[17] = 250 g ai/ha, scale 0 to 100, 0 no effect, 100 complete control, 13 to 15 d
[18] = postemergence, 62 g ai/ha, scale 0 to 100, 0 no effect, 100 complete control
[19] = Postemergence, 31 g ai/ha, 0 to 100 scale (0 no effect, 100 complete control)
[20] = Postemergence, 125 g ai/ha, scale 0 to 100, 0 is no effect, 100 is complete control
[21] = Postemergence, 250 g ai/ha, scale 0 to 100, 0 no effect, 100 complete control, 13 to 15 d

## COc1nn(C)c(=O)c(-c2c(C)sc3ccc(Cl)cc23)c1O [Compound 100]
[1]; [16]
  Plant response rating, Johnsongrass: 5
[1]; [17]
  Plant response rating, Johnsongrass: 10
[1]; [18]
  Johnsongrass plant response rating: 0
[2]; [16]
  Plant response rating, Nutsedge, Yellow: 20
[2]; [17]
  Plant response rating, Nutsedge, Yellow: 50
[2]; [18]
  Nutsedge, Yellow plant response rating: 25
Corn (Zea mays); [19]
  Corn plant response rating: 5
Corn (Zea mays); [20]
  Plant response rating, Corn: 5
Corn (Zea mays); [21]
  Plant response rating, Corn: 10
Corn (Zea mays); [18]
  Corn plant response rating: 10
[3]; [16]
  Plant response rating, Oilseed Rape: 10
[3]; [17]
  Plant response rating, Oilseed Rape: 90
[3]; [18]
  Oilseed Rape plant response rating: 60
[4]; [16]
  Plant response rating, Crabgrass, Large: 25
[4]; [17]
  Plant response rating, Crabgrass, Large: 15
[4]; [18]
  Crabgrass, Large plant response rating: 15
[5]; [16]
  Plant response rating, Ryegrass, Italian: 90
[5]; [17]
  Plant response rating, Ryegrass, Italian: 95
[5]; [18]
  Ryegrass, Italian plant response rating: 90
[6]; [16]
  Plant response rating, Lambsquarters: 98
[6]; [17]
  Plant response rating, Lambsquarters: 98
[6]; [18]
  Lambsquarters plant response rating: 90
[7]; [16]
  Plant response rating, Morningglory: 100
[7]; [17]
  Plant response rating, Morningglory: 100
[7]; [18]
  Morningglory plant response rating: 100
[8]; [19]
  Blackgrass plant response rating: 5
[8]; [20]
  Plant response rating, Blackgrass: 5
[8]; [21]
  Plant response rating, Blackgrass: 25
[8]; [18]
  Blackgrass plant response rating: 5
[9]; [16]
  Plant response rating, Galium: 95
[9]; [17]
  Plant response rating, Galium: 95
[9]; [18]
  Galium plant response rating: 95
[10]; [19]
  Barnyardgrass plant response rating: 10
[10]; [20]
  Plant response rating, Barnyardgrass: 30
[10]; [21]
  Plant response rating, Barnyardgrass: 40
[10]; [18]
  Barnyardgrass plant response rating: 25
[11]; [16]
  Plant response rating, Ragweed: 95
[11]; [17]
  Plant response rating, Ragweed: 98
[11]; [18]
  Ragweed plant response rating: 95
[12]; [16]
  Plant response rating, Velvetleaf: 40
[12]; [17]
  Plant response rating, Velvetleaf: 65
[12]; [18]
  Velvetleaf plant response rating: 50
[13]; [16]
  Plant response rating, Waterhemp: 95
[13]; [17]
  Plant response rating, Waterhemp: 98
[13]; [18]
  Waterhemp plant response rating: 90
[14]; [16]
  Plant response rating, Pigweed: 100
[14]; [17]
  Plant response rating, Pigweed: 100
[14]; [18]
  Pigweed plant response rating: 85
[15]; [16]
  Plant response rating, Foxtail, Giant: 75
[15]; [17]
  Plant response rating, Foxtail, Giant: 90
[15]; [18]
  Foxtail, Giant plant response rating: 45

Reference: patent publication US10597388B2, “Pyridazinone herbicides” (FMC CORPORATION, priority 2014, dated 2020)
